Results on ten compounds are retold here after ChEMBL document CHEMBL1201862, “PubChem BioAssay data set” (2004).

Common to all, as to experiment: inhibition of tumour cell growth, NCI panel, 48 h
For assay [1], the system named is A498.
Assay [2] deals with EKVX.
The subject of assay [3] is HCT-15.
The test system of assay [4] is HOP-62.
The test system of assay [5] is HT-29.
The subject of assay [6] is IGROV-1.
Assay [7] relates to MDA-MB-231.
The test system of assay [8] is NCI-H23.
The subject of assay [9] is NCI-H522.
Assay [10] deals with OVCAR-4.
Assay [11] concerns OVCAR-8.
In assay [12] the test system is PC-3.
The test system of assay [13] is RPMI-8226.
For assay [14], the system named is SK-MEL-28.
Assay [15] concerns SK-MEL-5.
In assay [16] the test system is SK-OV-3.
Assay [17] deals with SN12C.
Assay [18] relates to SNB-75.
The subject of assay [19] is UACC-62.
Assay [20] relates to UO-31.

Counter-ions that a name gives are not always drawn.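 Five concentrations, 48 hours, 96-well plates. GI50: concentration for 50% inhibition of growth.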 The source made the active and inactive calls. No stated cut-off is given here; in the data, active = GI50 up to about 1.1 µM and inactive = higher.

`C1CC2CN(CCCN3CCOCC3)C(C1)O2` (stereo not given): the GI50 was > 100 µM (inactive) in [1]; > 100 µM (inactive) in assay [2]; more than 100 µM in assay [3]; > 100 µM (inactive) in assay [4]; > 100 µM (inactive) in assay [5]; > 100 µM (inactive) in assay [6]. For the same compound, the GI50 in [7], in assay [8], in assay [9], in [10], in assay [11] and in assay [12] was > 100 µM (inactive) in each case. In addition, the GI50 in assay [13], in assay [14], in [15], in assay [16], in assay [17] and in assay [18] was > 100 µM (inactive) each time. The GI50 in assay [19] and in assay [20] was > 100 µM (inactive) throughout.
`CCN1CSC(=S)N(CC)C1`: the GI50 in assay [1] was 27.8 µM (inactive); in assay [2], > 100 µM (inactive); in assay [3] it was 73.3 µM; in assay [4], 24 µM (inactive); in assay [5] it was 41.1 µM (inactive); in [6], 75.3 µM (inactive). The GI50 was 19.5 µM (inactive) in [7]; 48.3 µM (inactive) in assay [8]; 22.6 µM (inactive) in [9]; > 100 µM (inactive) in [10]; 98.4 µM (inactive) in [11]; > 100 µM (inactive) in [12]. For the same compound, the GI50 in assay [13] is 50.9 µM (inactive); in [14], > 100 µM (inactive); in [15], 76.9 µM (inactive); in assay [16] it was > 100 µM (inactive); in assay [17], > 100 µM (inactive); in assay [18], 44.2 µM (inactive). The GI50 in [19] is 38.8 µM (inactive); in assay [20] it was > 100 µM (inactive).
With `CCCC(=O)OC1C(C(O)CO)OC2OC(C)(C)OC21` (stereo not given), the GI50 in [1] is > 100 µM (inactive); in assay [2] it was > 100 µM (inactive); in assay [3], more than 100 µM; in assay [4] it was > 100 µM (inactive); in assay [5] it was > 100 µM (inactive); in assay [6], > 100 µM (inactive). For the same compound, the GI50 in assay [7], in assay [8], in [9], in assay [10], in [11] and in [12] was > 100 µM (inactive) throughout. The GI50 in [13], in [14], in [15], in [16], in assay [17] and in assay [18] was > 100 µM (inactive) each time. Moreover, the GI50 in assay [19] and in assay [20] was > 100 µM (inactive) each time.
Take `N#C/C(=C(\O)C(=O)O)c1ccc(-c2cccc3ccccc23)cc1`: the GI50 in assay [1] was > 100 µM (inactive); in [2], 59.4 µM (inactive); in assay [3], more than 100 µM; in assay [4], > 100 µM (inactive); in assay [5] it was > 100 µM (inactive); in assay [6], > 100 µM (inactive). The GI50 in assay [7], in assay [8], in assay [9], in assay [10], in assay [11] and in [12] was > 100 µM (inactive) in each case. Also, the GI50 in assay [13] was 29 µM (inactive); in [14] it was > 100 µM (inactive); in [15], > 100 µM (inactive); in [16], > 100 µM (inactive); in [17], > 100 µM (inactive); in assay [18] it was > 100 µM (inactive). The GI50 in assay [19] and in assay [20] was > 100 µM (inactive) each time.
Regarding `COc1ccc2nc3cc(Cl)ccc3c(NCCCNCCCNc3c4ccc(Cl)cc4nc4ccc(OC)cc34)c2c1`, the GI50 was 0.0541 µM (active) in assay [1]; 0.137 µM (active) in assay [2]; 0.0174 µM in assay [3]; < 0.01 µM (active) in [4]; < 0.01 µM (active) in assay [5]; 0.0164 µM (active) in assay [6]. The GI50 in [7] was < 0.01 µM (active); in [8], 0.0181 µM (active); in assay [9], 0.0128 µM (active); in assay [10] it was < 0.01 µM (active); in assay [11], < 0.01 µM (active); in assay [12], 0.0241 µM (active). Besides, the GI50 in [13] is 0.0826 µM (active); in assay [14] it was 0.133 µM (active); in [15], 0.0247 µM (active); in assay [16] it was 0.0352 µM (active); in [17], < 0.01 µM (active); in [18] it was 0.0299 µM (active). The GI50 was 0.0196 µM (active) in [19] and < 0.0236 µM (active) in assay [20].
As for `C[C@@H]1C[C@H]2OC(=O)[C@@]3(C)CCC[C@@](C)([C@@H]23)[C@@]1(O)CCc1ccoc1`, the GI50 in assay [1] is > 100 µM (inactive); in assay [2], > 100 µM (inactive); in assay [3], 79.3 µM; in assay [4], > 100 µM (inactive); in assay [5], > 95.7 µM (inactive); in assay [6], > 100 µM (inactive). Also, the GI50 in assay [7] was > 100 µM (inactive); in assay [8], > 77.8 µM (inactive); in [9], > 61.8 µM (inactive); in assay [10], > 64.9 µM (inactive); in [11], > 100 µM (inactive); in assay [12] it was > 100 µM (inactive). Moreover, the GI50 is 45.1 µM (inactive) in assay [13]; > 100 µM (inactive) in [14]; 40.6 µM (inactive) in [15]; > 100 µM (inactive) in [16]; > 100 µM (inactive) in assay [17]; > 100 µM (inactive) in [18]. The GI50 was > 62.4 µM (inactive) in [19] and > 59.3 µM (inactive) in [20].
As to `CC1(C)CC[C@]2(C(=O)O)CC[C@]3(C)C(=CC[C@@H]4[C@@]5(C)C[C@H](O)[C@H](O)[C@@](C)(CO)C5=CC[C@]43C)[C@@H]2C1`, the GI50 in assay [1] is > 100 µM (inactive); in assay [2] it was 53.2 µM (inactive); in [3], 40.7 µM; in assay [4] it was > 100 µM (inactive); in assay [5], 55.5 µM (inactive); in [6] it was 31.1 µM (inactive). Moreover, the GI50 in [7] was > 100 µM (inactive); in assay [8] it was 46.8 µM (inactive); in assay [9] it was 20.2 µM (inactive); in assay [10] it was 31.4 µM (inactive); in assay [11], 37.2 µM (inactive); in assay [12] it was 67.9 µM (inactive). Besides, the GI50 is 50.5 µM (inactive) in assay [13]; > 100 µM (inactive) in [14]; > 100 µM (inactive) in assay [15]; > 100 µM (inactive) in [16]; 51.9 µM (inactive) in assay [17]; 32.1 µM (inactive) in assay [18]. The values for the GI50 in assay [19] and in [20] were > 100 µM (inactive) and 39.3 µM (inactive), respectively.
`CC[C@@H]1C(=O)OC[C@@H]1Cc1cncn1C` [PILOCARPINE HYDROCHLORIDE]: the GI50 is > 100 µM (inactive) in assay [1]; > 100 µM (inactive) in [2]; more than 100 µM in [3]; > 100 µM (inactive) in assay [4]; > 100 µM (inactive) in assay [5]; > 100 µM (inactive) in [6]. The GI50 in assay [7], in assay [8], in assay [9], in assay [10], in assay [11] and in [12] was > 100 µM (inactive) each time. For the same compound, the GI50 in assay [13], in assay [14], in assay [15], in [16], in assay [17] and in [18] was > 100 µM (inactive) throughout. Also, the GI50 in assay [19] and in assay [20] was > 100 µM (inactive) throughout.
With `COC(=O)c1cc2ccc(O)c(O)c2cn1`, the GI50 is > 10 µM (inactive) in assay [1]; 21.4 µM (inactive) in assay [2]; 20.3 µM in [3]; 20.6 µM (inactive) in assay [4]; > 10 µM (inactive) in assay [5]; 17.5 µM (inactive) in assay [6]. In addition, the GI50 in assay [7] is 10.9 µM (inactive); in [8], 15.7 µM (inactive); in [9], 21.6 µM (inactive); in assay [10], 10.1 µM (inactive); in assay [11] it was 13.9 µM (inactive); in [12] it was 24.9 µM (inactive). The GI50 is 17.1 µM (inactive) in [13]; 20.4 µM (inactive) in [14]; 14.2 µM (inactive) in assay [15]; 27.5 µM (inactive) in assay [16]; 9.1 µM (inactive) in [17]; 21.5 µM (inactive) in assay [18]. Besides, the GI50 in assay [19] is 2.41 µM (inactive); in [20], 18.3 µM (inactive).
Take `CCOC(=O)c1c(NC(=O)c2cccs2)sc2c1CCCC2`: the GI50 in assay [1] is 24.3 µM (inactive); in assay [2], 54.8 µM (inactive); in [3], more than 100 µM; in assay [4], 21.8 µM (inactive); in assay [5] it was > 100 µM (inactive); in [6], 31.3 µM (inactive). For the same compound, the GI50 in [7] was 24.6 µM (inactive); in assay [8] it was 48.3 µM (inactive); in assay [9], 39.9 µM (inactive); in assay [10], 60.3 µM (inactive); in assay [11], 61.9 µM (inactive); in assay [12], 54.8 µM (inactive). Moreover, the GI50 was > 100 µM (inactive) in assay [13]; > 100 µM (inactive) in assay [14]; > 100 µM (inactive) in assay [15]; 25.5 µM (inactive) in [16]; > 90.4 µM (inactive) in assay [17]; 5.68 µM (inactive) in assay [18]. Further, the GI50 in assay [19] was 52.1 µM (inactive); in assay [20] it was > 63.1 µM (inactive).
